From patent US5250194A, “N-dodecyl heterocyclic compounds useful as industrial microbicides and preservatives” (Buckman Laboratories International, Inc., priority 1992, dated 1993)
In brackets after ≈: the same amount, converted by molar mass. Read-outs that look alike come from different tables or passages of the source.

Experiments:
P. aeruginosa = experiment: Basal salts method, minimum inhibitory concentration; assay type: cell-based; settings: basal salts solution
Description: The preferred compounds of the present invention were tested by the pulp substrate method and basal salts method described in U.S. Pat. No. 2,881,070 at column 5, beginning at line 12 and extending to column 6, line 53. The disclosure of U.S. Pat. No. 2,881,070 is specifically incorporated by reference herein. […] The minimum inhibitory concentrations are those in which a percentage kill of at least 80% is obtained.

E. aerogenes = experiment: Pulp substrate method, minimum inhibitory concentration; assay type: cell-based
Text: The minimum inhibitory concentrations are those in which a percentage kill of at least 80% is obtained.

[1] = Firestone and Pisano; cited from earlier work
Aspergillus niger = experiment: Fungal growth inhibition, minimum inhibitory concentration; assay type: cell-based; settings: pH 6.0, completely prevented growth, read-out: Minimum inhibitory concentration against fungi
Description: The microorganism growth inhibiting activity of N-dodecyl heterocyclic compounds on the fungus Aspergillus niger was evaluated.

[2] = Barker and Hadgraft; cited from earlier work
Chlorella pyrenoidosa = experiment: Algae growth inhibition in Difco Algae Broth; assay type: cell-based; settings: Auxenochlorella pyrenoidosa, 672 h
Description: (§1) The growth inhibiting activity of the method of the invention against the three algae Chlorella pyrenoidosa, Chlorococcum hypnosporum and Phormidium inundatum was evaluated in Difco Algae Broth, the content of which was as follows:
(§2) Forty-gram portions of the algae medium were added to 250 mL Pyrex Erlenmeyer flasks fitted with loose metal caps and then sterilized. Each of the following substances wa then added to the flasks in the order listed:
(§3) 1. Sterile algae medium as required to bring the total weight of the contents of each flask to 50 grams, after allowing for all subsequent additions specified below.
(§4) 2. A solution of the N-dodecyl heterocyclic toxicant or of a control agent to be evaluated in each test, to give the concentration desired in parts per million by weight.
(§5) 3. Chlorella pyrenoidosa, Chlorococcum hypnosporum and Phormidium inundatum in amounts sufficient to give excellent growth in the controls after 14 days. This was achieved by adding 1 milliliter of a 14 day old culture having luxuriant growth. The Chlorella pyrenoidosa culture was obtained from American Type Culture Collection No. 7516; Chlorococcum hynosporum, from the University of Texas at Austin; and Phormidium inundatum, Wisconsin No. 1093, from the University of Washington.
(§6) As a control experiment, WSCP was used as a positive control agent. WSCP is a known toxicant which kills C. pyrenoidosa at 2 ppm, C. hypnosporum at 2 ppm and P. inundatum at 10 ppm. Control experiments were also carried out where no toxicants were also employed. In the algicidal tests the growth of algae in the nutrient medium is lush green and can be seen with the naked eye. Because the minimum inhibitory concentrations of the compounds in this example are those which result in complete inhibition evaluation of the test results is not subjective.
(§7) After the inoculum of the test algae was added, the flasks were incubated at a temperature of 28° ±2° C. under fluorescent illumination of 250 foot-candle intensity (8 hours light, 16 hours darkness) for a period adequate for growth in the controls (those portions of medium which contained no toxicant). Observations of growth were made at 7-day intervals. Minimum inhibitory concentrations are those that prevented complete growth after 28 days.

Chlorococcum hypnosporum = experiment: Algae growth inhibition in Difco Algae Broth; assay type: cell-based; settings: 672 h
Description: as §1, §2, §3, §4, §5, §6, §7

epoxidation of aldrin = settings: rat liver; Wilkinson et al.; cited from earlier work
cholesterol biosynthesis = settings: rat liver; Baggeley et al.; cited from earlier work
Phormidium inundatum = experiment: Algae growth inhibition in Difco Algae Broth; assay type: cell-based; settings: 672 h
Description: as §1, §2, §3, §4, §5, §6, §7

[3] = C. pyrenoidosa, pH 7.0, 28 days, read-out: Minimum inhibitory concentration against algae
[4] = C. hypnosporum, pH 7.0, 28 days, read-out: Minimum inhibitory concentration against algae
[5] = P. inundatum, pH 7.0, 28 days, read-out: Minimum inhibitory concentration against algae
[6] = pH 7, read-out: Minimum inhibitory concentration against algae

SMILES: CCCCCCCCCCCCN1CCOCC1 [Compound 1, N-Dodecylmorpholine]
- Minimum inhibitory concentration (P. aeruginosa; pH 6.0, at least 80% kill): 8
- Minimum inhibitory concentration (P. aeruginosa; pH 8.0, at least 80% kill): 40
- Minimum inhibitory concentration (E. aerogenes; pH 6.0, at least 80% kill): 25
- Minimum inhibitory concentration (E. aerogenes; pH 8.0, at least 80% kill): 25
- lysosomotropic detergent, useful as anti-cancer compounds and spermicides [1]: lysosomotropic detergents
- MIC (Aspergillus niger): > 100 µg/mL
- help the transport of anionic drugs [2]: help the transport of anionic drugs
- MIC (Chlorella pyrenoidosa; [3]): 1 µg/mL (≈ 3.91 µM)
- MIC (Chlorococcum hypnosporum; [4]): 1 µg/mL (≈ 3.91 µM)

SMILES: CCCCCCCCCCCCn1ccnc1 [Compound 2, N-Dodecylimidazole]
- Minimum inhibitory concentration (P. aeruginosa; pH 6.0, at least 80% kill): 4
- Minimum inhibitory concentration (P. aeruginosa; pH 8.0, at least 80% kill): 10
- Minimum inhibitory concentration (E. aerogenes; pH 6.0, at least 80% kill): 1000
- Minimum inhibitory concentration (E. aerogenes; pH 8.0, at least 80% kill): > 1000
- inhibitor of epoxidation of aldrin (epoxidation of aldrin): inhibitor of epoxidation of aldrin of rat liver
- lysosomotropic detergent, useful as anti-cancer compounds and spermicides [1]: lysosomotropic detergents
- MIC (Aspergillus niger): 32 µg/mL (≈ 135 µM)
- inhibitor of cholesterol biosynthesis (cholesterol biosynthesis): inhibitor of cholesterol biosynthesis in rat liver
- MIC (Chlorella pyrenoidosa; [3]): 0.5 µg/mL (≈ 2.12 µM)
- MIC (Chlorococcum hypnosporum; [4]): 0.7 µg/mL (≈ 2.96 µM)
- MIC (Phormidium inundatum; [5]): 2 µg/mL (≈ 8.46 µM)

SMILES: CCCCCCCCCCCCN1CC(C)OC(C)C1 (centres unmarked) [Compound 3, N-dodecyl-2,6-dimethylmorpholine]
- Minimum inhibitory concentration (E. aerogenes; pH 6.0, at least 80% kill): 1000
- Minimum inhibitory concentration (E. aerogenes; pH 8.0, at least 80% kill): 1000
- MIC (Aspergillus niger): 128 µg/mL (≈ 451 µM)
- MIC (Chlorella pyrenoidosa; [3]): 10 µg/mL (≈ 35.3 µM)
- MIC (Chlorococcum hypnosporum; [4]): < 1 µg/mL
- MIC (Phormidium inundatum; [5]): 1000 µg/mL (≈ 3530 µM)

SMILES: CCCCCCCCCCCCN1CC(CCl)OC1=O (centres unmarked) [Compound 4, N-dodecyl-5-chloromethyl-2-oxazolidinone]
- Minimum inhibitory concentration (E. aerogenes; pH 6.0, at least 80% kill): 1000
- Minimum inhibitory concentration (E. aerogenes; pH 8.0, at least 80% kill): 1000
- MIC (Aspergillus niger): > 512 µg/mL
- MIC (Chlorella pyrenoidosa; [3]): 100 µg/mL (≈ 329 µM)
- MIC (Chlorococcum hypnosporum; [4]): 100 µg/mL (≈ 329 µM)
- MIC (Phormidium inundatum; [5]): 100 µg/mL (≈ 329 µM)

SMILES: CCCCCCCCCCCCN1CCCC1=O [Compound 5, N-Dodecyl-2-pyrrolidinone]
- Minimum inhibitory concentration (E. aerogenes; pH 6.0, at least 80% kill): 1000
- Minimum inhibitory concentration (E. aerogenes; pH 8.0, at least 80% kill): 1000
- MIC (Aspergillus niger): 32 µg/mL (≈ 126 µM)
- MIC (Chlorella pyrenoidosa; [3]): 10 µg/mL (≈ 39.5 µM)
- MIC (Chlorococcum hypnosporum; [4]): 10 µg/mL (≈ 39.5 µM)
- MIC (Phormidium inundatum; [5]): 10 µg/mL (≈ 39.5 µM)

SMILES: CCCCCCCCCCCCN1CCCCCC1 [Compound 6, N-Dodecylhexamethyleneimine]
- Minimum inhibitory concentration (E. aerogenes; pH 6.0, at least 80% kill): > 1000
- Minimum inhibitory concentration (E. aerogenes; pH 8.0, at least 80% kill): 1000
- MIC (Aspergillus niger): 256 µg/mL (≈ 957 µM)
- MIC (Chlorella pyrenoidosa; [6]): 1 µg/mL (≈ 3.74 µM)
- MIC (Chlorococcum hypnosporum; [6]): 1 µg/mL (≈ 3.74 µM)
- MIC (Phormidium inundatum; [6]): 10 µg/mL (≈ 37.4 µM)

SMILES: CCCCCCCCCCCCN1CCCC1 [Compound 7, N-Dodecylpyrrolidine]
- Minimum inhibitory concentration (E. aerogenes; pH 6.0, at least 80% kill): 1000
- Minimum inhibitory concentration (E. aerogenes; pH 8.0, at least 80% kill): > 1000
- MIC (Aspergillus niger): 128 µg/mL (≈ 535 µM)
- MIC (Chlorella pyrenoidosa; [6]): 1 µg/mL (≈ 4.18 µM)
- MIC (Chlorococcum hypnosporum; [6]): 1 µg/mL (≈ 4.18 µM)
- MIC (Phormidium inundatum; [6]): 1 µg/mL (≈ 4.18 µM)

SMILES: CCCCCCCCCCCCN1CCCC(C)C1 (centres unmarked) [Compound 8, N-dodecyl-3-methylpiperidine]
- Minimum inhibitory concentration (E. aerogenes; pH 6.0, at least 80% kill): 1000
- Minimum inhibitory concentration (E. aerogenes; pH 8.0, at least 80% kill): > 1000
- MIC (Aspergillus niger): 256 µg/mL (≈ 957 µM)
- MIC (Chlorella pyrenoidosa; [3]): 10 µg/mL (≈ 37.4 µM)
- MIC (Chlorococcum hypnosporum; [4]): 1 µg/mL (≈ 3.74 µM)
- MIC (Phormidium inundatum; [5]): 10 µg/mL (≈ 37.4 µM)

SMILES: CCCCCCCCCCCCN1CCCCC1 [Compound 9, N-Dodecylpiperidine]
- Minimum inhibitory concentration (E. aerogenes; pH 6.0, at least 80% kill): 1000
- Minimum inhibitory concentration (E. aerogenes; pH 8.0, at least 80% kill): 1000
- MIC (Aspergillus niger): 32 µg/mL (≈ 126 µM)
- MIC (Chlorella pyrenoidosa; [6]): 1 µg/mL (≈ 3.95 µM)
- MIC (Chlorococcum hypnosporum; [6]): 1 µg/mL (≈ 3.95 µM)
- MIC (Phormidium inundatum; [6]): 10 µg/mL (≈ 39.5 µM)

SMILES: CCCCCCCCCCCCN1CCC(C)CC1 [Compound 10, N-Dodecyl-4-methylpiperidine]
- Minimum inhibitory concentration (E. aerogenes; pH 6.0, at least 80% kill): 100
- Minimum inhibitory concentration (E. aerogenes; pH 8.0, at least 80% kill): > 1000
- MIC (Aspergillus niger): 1000 µg/mL (≈ 3740 µM)
- MIC (Chlorella pyrenoidosa; [3]): < 1 µg/mL
- MIC (Chlorococcum hypnosporum; [4]): < 1 µg/mL
- MIC (Phormidium inundatum; [5]): < 1 µg/mL

SMILES: CCCCCCCCCCCCN1CCCCC1C (centres unmarked) [Compound 11, N-Dodecyl-2-methylpiperidine]
- Minimum inhibitory concentration (E. aerogenes; pH 6.0, at least 80% kill): 100
- Minimum inhibitory concentration (E. aerogenes; pH 8.0, at least 80% kill): > 1000
- MIC (Aspergillus niger): 1000 µg/mL (≈ 3740 µM)
- MIC (Chlorella pyrenoidosa; [6]): < 1 µg/mL
- MIC (Chlorococcum hypnosporum; [6]): < 1 µg/mL
- MIC (Phormidium inundatum; [6]): 5 µg/mL (≈ 18.7 µM)
